Assay results taken from the OPERA property sets (Mansouri et al. 2018).

Details: not given
For `C#CCN1CC(=O)N(COC(=O)[C@@H]2[C@@H](C=C(C)C)C2(C)C)C1=O`, the log10 vapour pressure (mmHg) was -7.87.
With `Cc1ccc([N+](=O)[O-])cc1S(=O)(=O)O` the ready biodegradability was “not readily biodegradable”.
Molecule `Fc1ccc(Br)cc1Br` has a melting point of 69 °C.
For `C[Si]1(C)O[Si](C)(C)O[Si](C)(C)O[Si](C)(C)O[Si](C)(C)O[Si](C)(C)O[Si](C)(C)O[Si](C)(C)O1`, the boiling point was 290 °C, the log10 vapour pressure (mmHg) was -2.54 and the melting point was 31.5 °C.
With `Nc1cc(Cl)ccc1[N+](=O)[O-]` the melting point was 128 °C.
Work on `CC(C)C[Si](Cl)(Cl)Cl` yielded a boiling point of 143 °C.
With `Cc1ccc(Cl)cc1C` the boiling point was 194 °C and the melting point was -6 °C.
`O=C1OC(=O)c2c(I)c(I)c(I)c(I)c21` showed a melting point of 328 °C.
For `CC(C)(O)C(=O)c1ccc(OCCO)cc1`, the melting point was 89 °C.
Molecule `CC(=O)C(Cl)Cl` has a boiling point of 120 °C and a log10 vapour pressure (mmHg) of 1.43.
`COC(=O)CC#N` gave a boiling point of 200 °C, a log10 vapour pressure (mmHg) of -0.86 and a melting point of -22.5 °C.
In the case of `O=P(O)(O)C(Cl)(Cl)P(=O)(O)O`, the melting point is reported as 250 °C.
Work on `CCOC(=O)C(Cl)Cl` yielded a boiling point of 155 °C and a log10 vapour pressure (mmHg) of 0.456.
For `Brc1ccccc1`, the boiling point was 156 °C, the log10 Henry constant (atm·m³/mol) was -2.61 and the log10 Koc (L/kg) was 2.49. For the same molecule, the log10 vapour pressure (mmHg) was 0.621, the melting point was -30.6 °C and the ready biodegradability was “not readily biodegradable”.
`CC(=O)C1CC=C(C)CC1` (stereo unspecified) showed a boiling point of 171 °C.
For `COc1ccc(C=O)cc1OC`, the boiling point was 281 °C, the melting point was 43 °C and the ready biodegradability was “readily biodegradable”.
Molecule `CCCCCCCCCCC(C)C(=O)O` (stereo unspecified) has a melting point of 22 °C.
`O=C(O)c1cncc(C(=O)O)c1` gave a melting point of 324 °C.
`CC(=O)Nc1ccc(C)c(NS(=O)(=O)C(F)(F)F)c1` showed a melting point of 176 °C.
Work on `COC=O` yielded a boiling point of 31.7 °C, a log10 Henry constant (atm·m³/mol) of -3.65 and a log10 Koa of 1.75. The log10 vapour pressure (mmHg) was 2.77 and the melting point was -99 °C.
Work on `CC(Oc1c(Cl)cccc1Cl)C1=NCCN1` (stereo unspecified) yielded a melting point of 127 °C.
For `C=C(C)C=C(C)C`, the boiling point was 93.2 °C and the melting point was -114 °C.
For `NCCCCCCNCCCCCCN`, the melting point was 33 °C.
With `CCC(C)CCc1ccccc1` (stereo unspecified) the boiling point was 220 °C.
For `CCCC/C=C\C(C)(C)O`, the boiling point was 177 °C.
`Clc1ccc(Cn2cncn2)cc1Cl` showed a melting point of 46.5 °C.
`C=COCCCl` gave a boiling point of 108 °C, a log10 vapour pressure (mmHg) of 1.43 and a melting point of -70 °C. The ready biodegradability was “readily biodegradable”.
With `ClC(Cl)=C(c1ccc(Cl)cc1)c1ccc(Cl)cc1` the boiling point was 336 °C, the log10 Henry constant (atm·m³/mol) was -4.38 and the log10 Koa was 9.68. It also gave a log10 Koc (L/kg) of 4.82, a log10 vapour pressure (mmHg) of -5.22 and a melting point of 89 °C.
With `C=C(C)CCl` the boiling point was 71.5 °C, the log10 vapour pressure (mmHg) was 2.01 and the ready biodegradability was “readily biodegradable”.
In the case of `CCCCCC[N+](=O)[O-]`, the boiling point is reported as 193 °C.
In the case of `CC(N)CO` (stereo unspecified), the boiling point is reported as 174 °C.
`CC(C)(C)C(=O)OC(=O)C(C)(C)C` gave a boiling point of 193 °C and a log10 vapour pressure (mmHg) of -0.356.
Molecule `CC/C=C\CO` has a boiling point of 138 °C.
Molecule `O=C(O)CF` has a boiling point of 168 °C, a log10 Henry constant (atm·m³/mol) of -7.91 and a melting point of 35.2 °C.
In the case of `CC(Br)Br`, the boiling point is reported as 108 °C, the log10 vapour pressure (mmHg) is reported as 1.41 and the melting point is reported as -63 °C.
With `CN1CCC(N(Cc2cccs2)c2ccccc2)CC1` the melting point was 96 °C.
In the case of `CN1CC1`, the boiling point is reported as 27.5 °C.
Molecule `O=C(Br)CBr` has a boiling point of 148 °C.
For `O=C(O)/C=C/C=C/C(=O)O`, the melting point was 301 °C.
In the case of `COc1cccc(OC)n1`, the boiling point is reported as 179 °C.
Work on `Cc1ccc(C=O)o1` yielded a boiling point of 187 °C.
Work on `O=C1CCCCCCCCC1` yielded a melting point of 28 °C.
For `CC(C)(Oc1ccc(C2CC2(Cl)Cl)cc1)C(=O)O` (stereo unspecified), the melting point was 115 °C.
With `Cc1cc(C)c(N)c(Cl)c1` the ready biodegradability was “not readily biodegradable”.
In the case of `CCOP(=O)(NC(C)C)Oc1ccc(S(C)=O)c(C)c1` (stereo unspecified), the log10 Koc (L/kg) is reported as 1.57.
Molecule `Cc1c(Br)cc(Br)c(O)c1Br` has a melting point of 84 °C.
For `Cn1cnc2nc(N)[nH]c(=O)c21`, the melting point was 370 °C.
For `NNc1c(F)c(F)cc(F)c1F`, the melting point was 92 °C.
`CCOC(=O)C(F)(F)F` showed a boiling point of 61 °C.
For `NCCCNCCCCNCCCN`, the melting point was 29 °C.
For `O=C(O)[C@@H](CO)c1ccccc1`, the melting point was 118 °C.
In the case of `O=C(O)C(Br)C(Br)C(=O)O` (stereo unspecified), the ready biodegradability is reported as “not readily biodegradable”.
`c1ccc(Cc2c3ccccc3c(Cc3ccccc3)c3ccccc23)cc1` showed a melting point of 246 °C.
In the case of `Clc1cccc2cc3ccccc3cc12`, the melting point is reported as 83.5 °C.
With `O=C(O)CCCCCCCF` the melting point was 35 °C.
For `Clc1ccc(Cl)c(Cl)c1Cl`, the boiling point was 254 °C, the log10 Henry constant (atm·m³/mol) was -3.12 and the log10 Koa was 5.64. For the same molecule, the log10 Koc (L/kg) was 3.84, the log10 vapour pressure (mmHg) was -1.41 and the melting point was 47.5 °C. The ready biodegradability was “not readily biodegradable”.
Molecule `CCc1nc(C)cnc1C` has a boiling point of 180 °C.
Work on `O=C(O)Cc1cccc(Br)c1` yielded a melting point of 101 °C.
With `CCC=C(C)C=O` the boiling point was 136 °C.
For `C=CCCBr`, the boiling point was 98.5 °C.
In the case of `CCOC(=O)C1CCCC1=O` (stereo unspecified), the boiling point is reported as 221 °C.
`c1cnc2[nH]ccc2c1` gave a melting point of 106 °C.
In the case of `CCCC(C=O)CCC`, the boiling point is reported as 160 °C.
For `CN(C)C=O`, the boiling point was 153 °C, the log10 Henry constant (atm·m³/mol) was -7.13 and the log10 Koa was 4.38. For the same molecule, the log10 vapour pressure (mmHg) was 0.588, the melting point was -60.4 °C and the ready biodegradability was “readily biodegradable”.
With `CC1COCc2cc3c(cc21)C(C)(C)C(C)C3(C)C` (stereo unspecified) the boiling point was 325 °C, the log10 vapour pressure (mmHg) was -3.26 and the melting point was -5 °C.
`CC(=O)OC(OC(C)=O)c1ccco1` showed a boiling point of 220 °C and a melting point of 53.3 °C.
For `CCCCCCN1CC(C(=O)OC)CC1=O` (stereo unspecified), the melting point was 4 °C.
`Clc1cc(Cl)c2ccccc2n1` showed a boiling point of 281 °C and a melting point of 67.5 °C.
Molecule `CC(=O)c1ccc(C)nc1` has a melting point of 17.6 °C.
For `OCC(O)CN1CCN(c2ccccc2)CC1` (stereo unspecified), the melting point was 105 °C.
With `C=CCC1(C(C)CCC)C(=O)NC(=O)NC1=O` (stereo unspecified) the melting point was 100 °C.
Work on `NC(Cc1n[nH]c2ccccc12)C(=O)O` (stereo unspecified) yielded a melting point of 240 °C.
With `Nc1ccc(Br)cc1[N+](=O)[O-]` the melting point was 112 °C.
In the case of `O=C(O)Cc1ccccc1`, the boiling point is reported as 266 °C, the log10 Koc (L/kg) is reported as 1.45 and the log10 vapour pressure (mmHg) is reported as -2.42. The melting point was 76.5 °C and the ready biodegradability was “readily biodegradable”.
`COc1cc(O)c(C(=O)c2ccccc2)c(O)c1` showed a melting point of 130 °C.
`CCOCn1c(-c2ccc(Cl)cc2)c(C#N)c(Br)c1C(F)(F)F` showed a melting point of 100 °C.
Molecule `NCCCCCCN` has a boiling point of 205 °C, a log10 vapour pressure (mmHg) of -0.928 and a melting point of 41.5 °C. For the same molecule, the ready biodegradability was “readily biodegradable”.
Work on `O=C(O)c1ccccc1C(F)(F)F` yielded a melting point of 111 °C.
`O=[N+]([O-])c1ccc(Cl)c([N+](=O)[O-])c1` showed a boiling point of 315 °C, a log10 vapour pressure (mmHg) of -4.07 and a melting point of 53 °C. The ready biodegradability was “not readily biodegradable”.
In the case of `Clc1ccc(-c2c(Cl)cc(Cl)c(Cl)c2Cl)c(Cl)c1Cl`, the log10 Koa is reported as 10.2 and the log10 vapour pressure (mmHg) is reported as -5.85.
`O=C(O)c1cc(O)cc(C(=O)O)c1` showed a melting point of 293 °C.
Work on `Cc1ccc(F)cc1[N+](=O)[O-]` yielded a boiling point of 213 °C and a melting point of 27 °C.
In the case of `COC(=O)C1(S(=O)(=O)c2ccc(Br)cc2)CC1`, the melting point is reported as 124 °C.
With `COc1cc(OC)nc(Sc2cccc(Cl)c2C(=O)[O-])n1.[Na+]` the melting point was 248 °C.
`CCCCCCC(=O)OCCCCC` showed a boiling point of 245 °C and a melting point of -50 °C.
With `CCCCC(CC)CO[Si](OCC(CC)CCCC)(OCC(CC)CCCC)OCC(CC)CCCC` (stereo unspecified) the boiling point was 419 °C.
With `CCCC[C@@H](O)CC` the log10 vapour pressure (mmHg) was -0.131.
`c1ccc(Cc2ccncc2)cc1` showed a boiling point of 288 °C and a melting point of 12.4 °C.
With `CCOC(=O)c1cc([N+](=O)[O-])cc([N+](=O)[O-])c1` the log10 Koc (L/kg) was 2.74 and the melting point was 94 °C.
`Clc1cccc(Cl)c1` gave a boiling point of 173 °C, a log10 Henry constant (atm·m³/mol) of -2.58 and a log10 Koa of 4.12. For the same molecule, the log10 Koc (L/kg) was 2.58, the log10 vapour pressure (mmHg) was 0.332 and the melting point was -24.8 °C. The ready biodegradability was “not readily biodegradable”.
In the case of `CC(=O)Nc1ccc(-c2ccc(N)cc2)cc1`, the ready biodegradability is reported as “not readily biodegradable”.
For `FC1C(F)(F)C(F)(F)C(F)(F)C(F)(F)C1(F)F`, the boiling point was 62 °C.
Work on `O=C(O)C=Cc1cccc([N+](=O)[O-])c1` yielded a melting point of 179 °C.
`CCCCCCCCCCCC(=O)OCc1ccccc1` showed a melting point of 8.5 °C.
With `CCOC(=O)CN1CCN(C(=O)/C=C\c2cc(OC)c(OC)c(OC)c2)CC1` the melting point was 96 °C.
In the case of `COC(=O)CCCCCC(=O)OC`, the melting point is reported as -21 °C.
With `CC(C)=CC(C)(C)C` the boiling point was 105 °C, the log10 vapour pressure (mmHg) was 1.56 and the melting point was -106 °C.
In the case of `Cc1ccc(S(=O)(=O)O)cc1`, the melting point is reported as 104 °C and the ready biodegradability is reported as “readily biodegradable”.
`CNCCNC` gave a boiling point of 120 °C.
Molecule `NC(=O)Cc1ccccc1` has a melting point of 157 °C.
Work on `C[C@]12N[C@H](Cc3ccccc31)c1ccccc12` yielded a melting point of 68.8 °C.
Work on `CCCCC(C)CC(C)C` (stereo unspecified) yielded a boiling point of 156 °C.
Molecule `CCC(C)CO` (stereo unspecified) has a boiling point of 128 °C, a log10 Henry constant (atm·m³/mol) of -4.85 and a log10 vapour pressure (mmHg) of 0.494.
Molecule `O=C(O)CCN1C(=O)C=CC1=O` has a melting point of 104 °C.
Molecule `CCOC(=O)C1CC(=O)C(=C(O)C2CC2)C(=O)C1` (stereo unspecified) has a log10 vapour pressure (mmHg) of -4.79 and a melting point of 36 °C.
`CC(C)(c1ccccc1)c1ccccc1` gave a boiling point of 282 °C and a melting point of 29 °C.
`CC1C2Cc3ccc(O)cc3C1(C)CCN2CCc1ccccc1` (stereo unspecified) gave a melting point of 181 °C.

Same assay, conditions: fish
For `Brc1ccccc1`, the log10 BCF was 1.36 and the log10 biotransformation half-life (days) was -1.19.
For `ClC(Cl)=C(c1ccc(Cl)cc1)c1ccc(Cl)cc1`, the log10 BCF was 4.08 and the log10 biotransformation half-life (days) was 1.71.
`CC(C)c1ccc2c(c1)CC[C@H]1[C@](C)(C(=O)O)CCC[C@]21C` showed a log10 BCF of 2.12.
`O=C(O)C(Br)C(Br)C(=O)O` (stereo unspecified) gave a log10 BCF of 0.81.
In the case of `Clc1ccc(Cl)c(Cl)c1Cl`, the log10 BCF is reported as 3.38 and the log10 biotransformation half-life (days) is reported as 0.69.
`CN(C)C=O` gave a log10 BCF of -0.1.
With `Clc1ccc(-c2c(Cl)cc(Cl)c(Cl)c2Cl)c(Cl)c1Cl` the log10 biotransformation half-life (days) was 2.52.
With `Clc1cccc(Cl)c1` the log10 BCF was 2.33 and the log10 biotransformation half-life (days) was -0.21.
